Laboratory results reported in ChEMBL document CHEMBL1134899, “Non-steroidal pregnancy-terminating agents: design, synthesis and structure-activity relationships of 2-aryl-1,2,4-triazolo[1,5-a]pyridine” (2002).
Active and inactive are the calls of the source. The rule behind the calls is not given here.

Key:
[1] = species on record: Rattus norvegicus; assay: Compound was tested for in vitro activity of luteolysis on corpora lutea from pseudopregnant rats; format: functional; conditions: read-out: ED50 (the source's name)
[2] = species on record: Rattus norvegicus; assay: Compound was tested for in vitro activity of luteolysis on corpora lutea from pseudopregnant rats; inactive; format: functional

Row | EC50 [1] [µM] | Compound | ED50 [2]
1 | 65 | Cc1cccc2nc(-c3ccc4c(c3)OCO4)nn12 | 
2 |  | Cc1cccc2nc(-c3ccccc3)nn12 | inactive
